For `COc1ccc(-c2nc3ncc(N)cc3[nH]2)c(OC)c1`, the logP was 1.62.

Consider `CCOC(=O)NC1=NCC(c2cccc(C)c2C)N1C` (stereo not given), for which the logP stood at 2.57.

Consider `CN(C)C(=O)c1cccc(Oc2ccccc2)c1`, for which the logP turned out to be 2.57.

`Cc1nn(-c2ccccc2)c(Nc2ccc(C(F)(F)F)cc2)c1[N+](=O)[O-]`: the logP turned out to be 3.89.

In turn, `CCOP(=O)(OCC)Oc1ccc([N+](=O)[O-])cc1` displayed a logP of 1.98.

`COC(=O)c1ccccc1S(=O)(=O)NC(=O)Nc1nc(C)nc(OC)n1` registered a logP of 2.2.

Turning to `NCCc1cn2ccccc2n1`, the logP worked out at 0.59.

For `COCC(=O)Cn1ccnc1[N+](=O)[O-]`, the logP is -0.26.

With `COc1ccc2cc(C(C)C(=O)Oc3ccccc3)ccc2c1` (stereo not given), the logP was 5.17.

`O=C(O)CCc1ccc(OCc2ccccc2)cc1` gave a logP of 3.31.

As for `CS(=O)(=O)OCCC[Se]CCCOS(C)(=O)=O`, the logP was found to be 0.38.

`CNC12CCCCC1COc1ccccc12` (stereo not given): the logP was 3.31.

Take `Clc1ccc(C(c2ccc(Cl)cc2)C(Cl)Cl)cc1`: the logP came to 6.02.

`CCOCCOCCOP(=O)(N1CC1)N1CC1` returned a logP of 0.1.

Consider `C[C@@H]1O[C@@H](O[C@H]2C[C@@H](O)[C@]3(CO)[C@H]4[C@H](O)C[C@]5(C)[C@@H](C6=CC(=O)OC6)CC[C@]5(O)[C@@H]4CC[C@]3(O)C2)[C@H](O)[C@H](O)[C@H]1O`, for which the logP is -2.

Consider `CCC(C(=O)OC(C)c1ccccc1)C(CO)Cc1cncn1C` (stereo not given), for which the logP was determined as 2.23.

With `CCOC(=O)CCCO`, the lipophilicity (logP) is 0.43.

Regarding `CCCc1ccc(OCC(OC(=O)n2ccnc2)C(C)(C)C)cc1` (stereo not given), the logP came to 4.73.

In the case of `O=c1c2c(nc3n1CCC3)CCCC2`, the logP is 0.83.

Turning to `N[C@H]1CCc2ccccc2[C@H]1O`, the logP turned out to be 0.86.

Compound `CN(Cc1cccc(Br)c1)N=O` yielded a logP of 1.65.

Compound `Cc1ccn2c(=O)ccnc2c1` came in with a logP of 0.56.

`NC(=S)NNC(=O)c1ccc2c(c1)OCO2` gave a logP of 0.21.

On to `OC[C@@H](O)[C@@H](O)[C@H](O)[C@@H](O)CO`, for which the logP was -2.2.

As for `CC(C)N(CCC(CCN1CCCCC1)(C(N)=O)c1ccccc1Cl)C(C)C` (stereo not given), the logP was determined as 4.78.

As to `Nc1nc(NCC(O)CO)c(Cl)nc1[N+](=O)[O-]` (stereo not given), the logP is -0.22.

Consider `O=C(OCn1c(=O)[nH]cc(F)c1=O)Oc1ccccc1`, for which the logP is 1.11.

Take `CC(C)C1NC(=O)NC1=O` (stereo not given): the logP was -0.36.

For `CCOC(=O)C1(c2ccccc2)CCN(C)CC1`, the logP is 2.72.

Compound `CCN(CC)CCC(=O)c1sc(N)nc1C` gave a logP of 1.76.

In turn, `CNC(=O)Oc1cc(C)ccc1C(C)C` returned a logP of 2.84.

Consider `COC(=O)NC1=NCC(c2ccccc2)N1C` (stereo not given), for which the logP was determined as 1.57.

As to `CNc1nnc(-c2cc(Cl)cc(Cl)c2)c(=O)n1N`, the logP was 1.91.

`CC(C)c1ccc(N)cc1`: the logP was 2.49.

`COc1ccc(C(=O)OCC2OC(n3cc(I)c(=O)[nH]c3=O)CC2O)cc1` (stereo not given) showed a logP of 1.38.

The compound `CS(=O)(=O)c1ccc(OCC(=O)O)cc1` showed a logP of 0.06.

In the case of `CN(C)CCN(Cc1cccs1)c1ccccn1`, the logP is 2.87.

`Nc1c(Cl)c(Cl)cc(Cl)c1Cl` returned a logP of 4.1.

Regarding `Cc1ccc(C(N)=S)cc1`, the logP was found to be 2.01.

`CCC(O)C(CC(C)N(C)C)(c1ccccc1)c1ccccc1` (stereo not given) came in with a logP of 4.27.

The compound `ClC(Br)Br` yielded a logP of 2.16.

For the compound `COc1ncc(-c2ccncc2)cc1C#N`, the logP came to 2.02.

`CCCN(C)CC(F)(F)F`: the logP came to 2.18.

For `CCCOc1ccc(OCC(OC(=O)n2ccnc2)C(C)(C)C)cc1` (stereo not given), the logP was 4.1.

Take `CNC(=O)c1cccc(Oc2cc(C)ccc2C)c1`: the logP turned out to be 3.76.

The compound `Cc1nc(N)sc1C(=O)CCN1CCCCC1` returned a logP of 2.13.

The compound `COc1ccc(Cn2cc(F)c(=O)[nH]c2=O)cc1` showed a logP of 1.04.

Turning to `O=C(O)CCCOc1cccc2ccccc12`, the logP was found to be 3.5.

Consider `Nc1nc(=O)n(C2OC(CO)CC2F)cc1Cl` (stereo not given), for which the logP is -0.46.

In the case of `CCOCCOCCOP(=S)(N1CC1)N1CC1`, the logP is 0.38.

In turn, `CCOc1ccc(C=NNC(=N)N)cc1` came in with a logP of 0.24.

As to `OCCN(CCO)CCCc1ccc(CSc2ccccc2)cc1`, the logP is 3.31.

In the case of `CC1=C(C(=O)O)N2C(=O)C(NC(NC(=O)c3nn(-c4ccccc4)c(=O)[nH]c3=O)c3ccc(O)cc3)C2SC1` (stereo not given), the logP was found to be 1.26.

As for `NC(=O)NCCC[C@H](N)C(=O)O`, the logP is -3.19.

Compound `O=[N+]([O-])c1ccc(Oc2ccc(Cl)cc2Cl)cc1` had a logP of 4.64.

As for `Cc1ccccc1C(=O)CCN1CCCCC1`, the logP is 3.54.

`CC1OC(=O)C(C)C(O)C1C` (stereo not given) returned a logP of 0.36.

In the case of `NC12CCCCC1c1ccccc1C2` (stereo not given), the logP is 2.94.

`CCc1c(O)c(=O)ccn1C(C)C` came in with a logP of 0.73.

The compound `NS(=O)(=O)c1cc2c(cc1C(F)(F)C(F)(F)F)N=CNS2(=O)=O` returned a log partition coefficient (logP) of 1.05.

Regarding `C[C@@H]1O[C@@H](O[C@@H]2C=C3CC[C@@H]4[C@H](CC[C@]5(C)[C@@H](c6ccc(=O)oc6)CC[C@]45O)[C@@]3(C)CC2)[C@H](O)[C@H](O)[C@H]1O`, the logP worked out at 2.48.

As for `O=C(O)c1cccc(Cl)n1`, the log partition coefficient (logP) is 1.5.

In the case of `CCn1cc(C(=O)OCOC(C)=O)c(=O)c2ccc(C)nc21`, the logP was 1.21.

For the compound `CON1C(=O)CC2(CCCC2)C1=O`, the log partition coefficient (logP) was 1.15.

Take `CC(CF)NCC(O)COc1cccc2[nH]c3ccccc3c12` (stereo not given): the logP was determined as 2.81.

The compound `CNC(=O)NC(=O)C(C)(C(=O)OCOC)C1=CCCCC1` (stereo not given) gave a logP of 1.8.

`CC(=O)Nc1ccc(Cl)cc1` displayed a logP of 2.09.

On to `Oc1c(Cl)cc(Cl)c(Cl)c1O`, for which the logP came out at 3.6.

For the compound `CCN1Cn2c(nc3ccccc3c2=O)C1C` (stereo not given), the logP is 1.02.

`NCC(O)c1ccc(O)cc1` (stereo not given): the logP is -0.9.

As for `CN1CCN(Cc2ncc([N+](=O)[O-])n2C)CC1`, the logP was -0.32.

Take `NC(=O)NCCCCCCn1nc(-c2ccccc2)ccc1=O`: the logP stood at 1.82.

For the compound `CCCC1=Nc2cc(Cl)c(S(N)(=O)=O)cc2S(=O)(=O)N1`, the logP was determined as 1.21.

With `Nc1ccc(C(=O)O)cc1N`, the logP came out at 0.13.

`CCCCCCCCO[C@@H]1O[C@H](CO)[C@H](O)[C@H](O)[C@H]1O` had a logP of 1.46.

As to `CC(C)(C)c1ccc(C2CCCC(O)C2)c(O)c1` (stereo not given), the logP was 4.05.

With `Nc1ccc(C(=O)O)c(N)c1`, the logP is -0.31.

Turning to `Clc1ccccc1`, the logP was found to be 2.84.

`CC(C(=O)CCN(C)C)N1C(=O)C2CC=CCC2C1=O` (stereo not given) gave a logP of 0.77.

As to `NS(=O)(=O)c1ccc(Cl)cc1`, the logP was found to be 1.15.

With `Nc1c(Cl)cc(Cl)cc1Cl`, the logP amounted to 3.52.

Compound `O=C1COC(=O)N1c1ccccc1` showed a logP of 0.93.

Turning to `CNc1nc(C)c(C(=O)CCN2CCCCC2)s1`, the logP was 2.21.

The compound `Cc1onc(-c2ccccc2Cl)c1C(=O)NC1C(=O)N2C1S(=O)C(C)(C)C2C(=O)O` (stereo not given) yielded a lipophilicity (logP) of 2.

For the compound `O=[N+]([O-])c1cccc(S(=O)(=O)[O-])c1.[Na+]`, the logP was -2.61.

`CCOc1cccc(-c2nnc(C)n(NC)c2=O)c1`: the logP was 1.91.

As to `NC(=O)Nc1ccc(C(=O)O)cc1`, the logP amounted to 0.73.

Regarding `CC(Cl)CCl` (stereo not given), the logP is 1.98.

For `COCCn1ccc(=O)c(O)c1C`, the logP was -0.41.

On to `O=C1CC2(CCCC2)C(=O)N1Oc1ccccc1`, for which the logP worked out at 1.77.

Take `CCCC(=NOCC)C1C(=O)CC(c2ccccc2)(c2ccccc2)OC1=O` (stereo not given): the logP stood at 4.75.

For the compound `O=c1[nH]c(=O)n(C2OC(CO)CC2F)cc1F` (stereo not given), the logP was -0.72.

Regarding `CCNC(=O)CCn1ccc(=O)c(O)c1C`, the logP was -0.82.

As for `CCOc1cccc(-c2nnc(S)n(C)c2=O)c1`, the logP is 2.67.

Consider `C=C1C(=O)OC2CC3=CC(CC4(C)OC4C(O)C12)OC3=O` (stereo not given), for which the logP was -0.64.

Consider `CN(C)[C@@H]1C(O)=C(C(N)=O)C(=O)[C@@]2(O)C(O)=C3C(=O)c4c(O)cccc4[C@@](C)(O)[C@H]3[C@H](O)[C@@H]12`, for which the log partition coefficient (logP) is -0.9.

`CCCCSc1nnc(C(C)C)c(=O)n1N` gave a logP of 3.21.

With `O=c1[nH]cc(F)c(=O)n1Oc1ccccc1`, the log partition coefficient (logP) is 0.8.

On to `COC(=O)NC1=NCC(c2cc(Br)ccc2Br)N1C` (stereo not given), for which the logP was 2.77.

Regarding `CNC12CCCCC1CCc1ccc(OC)cc12` (stereo not given), the logP came out at 3.75.

Turning to `COC(=O)c1c(C)[nH]c(-c2cccc(Cl)n2)c1C(=O)OC`, the logP was 2.65.

Compound `Cc1ccc(C)c(Oc2cccc(C(=O)NC(C)C)c2)c1` came in with a logP of 4.35.

`CCCc1ccc(OCC(OC(=S)n2ccnc2)C(C)(C)C)cc1` (stereo not given) came in with a logP of 5.77.

Compound `Cc1cccn2c(=O)ccnc12` gave a logP of 0.79.

As to `Cc1cccc(Nc2c([N+](=O)[O-])c(C)nn2-c2ccccc2)c1`, the logP came to 3.25.

Consider `CCOC(=O)OCn1c(=O)[nH]cc(F)c1=O`, for which the logP is 0.15.

On to `CCNP(=O)(OCC)ON=C(C#N)c1ccc([N+](=O)[O-])cc1` (stereo not given), for which the logP was 1.76.

`CN(C)C(=O)Nc1ccc(Oc2nnnn2C2CCCCC2)cc1` yielded a logP of 2.18.

On to `COc1ccc2cc(C(C)C(=O)OCC=C(C)CCC=C(C)C)ccc2c1` (stereo not given), for which the log partition coefficient (logP) is 7.77.

In turn, `CCN(CC)C(=O)c1ccccc1C` returned a logP of 2.02.

Take `CCCCCCCO`: the logP worked out at 2.62.

Consider `COc1cccc(C2C(=O)c3ccccc3C2=O)c1`, for which the logP is 2.88.

On to `CC(=O)O.CCCCCCCCCCCCNC(=N)N`, for which the logP was found to be 1.15.

With `OC1CCN(Cc2cccc(COc3ccccc3)c2)CC1`, the logP is 2.77.

Compound `COc1ccc(OCC(OC(=O)n2ccnc2)C(C)(C)C)cc1` (stereo not given) displayed a logP of 3.46.

For the compound `CCOC(=O)c1cnc2n(c1=O)C(C)CCC2` (stereo not given), the logP was found to be 0.62.

Compound `Nc1ccc(C(=O)O)c(O)c1` displayed a logP of 0.89.

For `CCCC(=NOCC)C1C(=O)CC(C)(C2CC2)OC1=O` (stereo not given), the logP was 3.28.

For `NCC1(CC(=O)O)CCCCC1`, the logP is -1.1.

On to `O=C1c2ccccc2C(=O)C1c1ccc(C(F)(F)F)cc1`, for which the logP came to 3.78.

As usually defined, the logP is a log measure of how a compound divides between an organic and an aqueous phase.
